System: Leu16 CAR-T cells
Assay: T-cell subtype distribution and Tn/scm enrichment, Leu16 CAR-T cells
Assay type: cell-based, human
Conditions: 6 days of pharmacological modulation, relative to vehicle
Source text: FIG. 3A-G. Pharmacological modulation of Leu16 CAR-T cells modestly dampens tonic signaling while enhancing anti-tumor efficacy. (A) Pictorial representation of the correlation between tonic signaling-modulated rituximab CAR-T cells and in vivo anti-tumor efficacy. (B) Pictorial representation of pharmacological modulation strategy aimed to either increase or decrease Leu16 CAR tonic signaling; c-MYC (MYCi975) and SREBP (betulin) inhibition increased tonic signaling whereas mTORC1 (rapamycin) inhibition decreased tonic signaling in rituximab CAR-T cells. (C) % distribution of T-cell subtypes in CAR^+ T cells after 6 days of pharmacological modulation (left) and Tn/scm enrichment (right). […] (F) Tumor signal (in photons/sec/cm2/sr) in individual animals as quantified by bioluminescence imaging. […]
Antibody staining for flow-cytometry analysis. EGFRt expression was measured with biotinylated cetuximab (Eli Lilly; biotinylated in-house), followed by PE-conjugated streptavidin (Jackson ImmunoResearch #016-110-084). CAR expression was quantified by surface epitope staining using anti-Fc (Alexa Fluor 488, Jackson ImmunoResearch #709-546-098). […] T-cell subtype of CAR-T cells was evaluated by antibody staining for CD45RO (VioBlue®, clone REA611, Miltenyi #130-119-620) and CD62L (APC, clone DREG56, Invitrogen #17-0629-42) after 5-6 days of inhibitor culture (FIG. 1, FIG. 3). […]

| Compound | enrichment of Tn/scm cells |
| --- | --- |
| C=C(C)[C@@H]1CC[C@]2(CO)CC[C@]3(C)[C@H](CC[C@@H]4[C@@]5(C)CC[C@H](O)C(C)(C)[C@@H]5CC[C@]43C)[C@@H]12 [betulin, Betulin] | increased enrichment |
| MYCi975 | increased enrichment |

From patent US20250345426A1, “METHODS FOR MAKING AND USING THERAPEUTIC CELLS” (THE REGENTS OF THE UNIVERSITY OF CALIFORNIA, priority 2022, published 2025)
